Source: US12435084B2, “Indazole derivatives as inhibitors of SARM1” (Disarm Therapeutics, Inc., priority 2020, dated 2025)

These compounds were tested against T1, SARM1 (Homo sapiens, UniProt Q6SZW1) (assay: ARM-SAM-TIR SARM1 IC50 assay (NADase activity, NAD+ cleavage, RapidFire mass spectrometry)). Settings: ARM-SAM-TIR lysate 5 μg/mL, 2 h pre-incubation with compound at room temperature, 5 μM NAD+, 2 hr incubation.
T1 construct: made in house; host or cells: NRK1-HEK293T cells, transient transfection; cleared cell lysate used without purification
T1 sequence (Q6SZW1 with tags, fused parts or gaps): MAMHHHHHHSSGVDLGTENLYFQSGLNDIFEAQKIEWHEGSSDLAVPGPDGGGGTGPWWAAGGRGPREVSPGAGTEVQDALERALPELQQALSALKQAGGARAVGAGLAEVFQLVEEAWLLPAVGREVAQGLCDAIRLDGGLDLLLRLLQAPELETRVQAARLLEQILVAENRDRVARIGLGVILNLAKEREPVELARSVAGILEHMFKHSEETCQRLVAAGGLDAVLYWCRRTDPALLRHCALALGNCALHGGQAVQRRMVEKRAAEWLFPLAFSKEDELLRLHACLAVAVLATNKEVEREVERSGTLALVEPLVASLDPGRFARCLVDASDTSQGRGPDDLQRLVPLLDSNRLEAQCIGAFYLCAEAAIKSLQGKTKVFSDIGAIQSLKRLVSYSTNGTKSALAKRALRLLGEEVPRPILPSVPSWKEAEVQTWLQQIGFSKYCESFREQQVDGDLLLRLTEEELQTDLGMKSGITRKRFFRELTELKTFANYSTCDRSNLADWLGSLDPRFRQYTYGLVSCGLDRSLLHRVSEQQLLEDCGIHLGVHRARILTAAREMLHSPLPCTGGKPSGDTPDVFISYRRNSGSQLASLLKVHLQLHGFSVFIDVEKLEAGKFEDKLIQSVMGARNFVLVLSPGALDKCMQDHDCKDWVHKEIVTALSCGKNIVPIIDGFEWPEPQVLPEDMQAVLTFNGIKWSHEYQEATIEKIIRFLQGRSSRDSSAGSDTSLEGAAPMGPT
Assay type: biochemical
Protocol: This Example describes an assay of ARM-SAM-TIR NADase activity and use of this assay to measure the efficacy of compounds of Formula I/II to block SARM1 mediated NAD+ cleavage. This assay was optimized in such a way as to characterize the efficacy of the compounds in Formula I/I to inhibit SARM1 activity and to calculate an IC50 value for each compound. This assay makes use of full length SARM1, which encompasses the ARM, SAM and TIR domains. […] NRK1-HEK293T cells were seeded onto 150 cm^2 plates at 20×10^6 cells per plate. The next day, the cells were transfected with […] ARM-SAM-TIR expression plasmid, SEQ ID NO: 1. The cultures were supplemented with 1 mM NR at time of transfection to minimize toxicity from ARM-SAM-TIR overexpression. Forty-eight hours after transfection, cells were harvested, pelleted by centrifugation at 1,000 rpm (Sorvall ST 16R centrifuge, Thermo Fisher), and washed once with cold PBS (0.01 M phosphate buffered saline NaCl 0.138 M; KCl 0.0027 M; pH 7.4). The cells were resuspended in PBS with protease inhibitors (cOmplete™ protease inhibitor cocktail, Roche product #11873580001) and cell lysates were prepared by sonication (Branson Sonifer 450, output=3, 20 episodes of stroke). The lysates were centrifuged (12,000×g for 10 min at 4° C.) to remove cell debris and the supernatants (containing ARM-SAM-TIR protein) were stored at −80° C. for later use in the in vitro ARM-SAM-TIR NADase assay (see below). Protein concentration was determined by the Bicinchoninic (BCA) method and used to normalize lysate concentrations. The enzymatic assay was performed in a 384-well polypropylene plate in Dulbecco's PBS buffer in a final assay volume of 20 μL. […] The reaction was initiated by addition of 5 μM final assay concentration of NAD+ as substrate. After a 2 hr room temperature incubation, the reaction was terminated with 40 μL of stop solution of 7.5% trichloroactetic acid in acetonitrile. The NAD+ and ADPR concentrations were analyzed by a RapidFire High Throughput Mass Spectrometry System (Agilent Technologies, Santa Clara, CA) using an API4000 triple quadrupole mass spectrometer (AB Sciex Framingham, MA).

Compound | IC50 [nM]
O=C(NCc1ccc(Cl)cc1)c1nccc2c(-c3ccncc3)n[nH]c12 [Example 14] | < 100
C[C@@H](NC(=O)c1cccc2c(-c3ccncc3)n[nH]c12)c1ccc(Cl)cc1 [Example 15] | 100 to 1000
O=C(NCc1ccc(Cl)cc1)c1cccc2c(-c3cnc[nH]3)n[nH]c12 [Example 18] | > 10000
O=C(NCc1ccc(Cl)cc1)c1cccc2c(-c3cncs3)n[nH]c12 [Example 19] | > 10000
Cn1cncc1-c1n[nH]c2c(C(=O)NCc3ccc(Cl)cc3)cccc12 [Example 20] | > 10000
O=C(NCc1ccc(Cl)cc1)c1cccc2c(-c3cnco3)n[nH]c12 [Example 21] | > 10000

Further lines, results first:

IC50 [nM] | Compound
< 100 | O=C(NCc1ccc(Cl)c(F)c1)c1cccc2c(-c3ccncc3)n[nH]c12 [Example 16]
< 100 | O=C(NCc1ccc(Cl)s1)c1cccc2c(-c3ccncc3)n[nH]c12 [Example 17]
1010 to 5000 | Cc1ccc(C(=O)NCc2ccc(Cl)nc2)c2[nH]nc(-c3ccncc3)c12 [Example 24]
100 to 1000 | Cc1cc(C(=O)NCc2ccc(Cl)nc2)c2[nH]nc(-c3ccncc3)c2c1 [Example 25]
